{
  "source": "paper PMC12586598",
  "about": "“A novel long-acting C5a-blocking cyclic peptide prevents sepsis-induced organ dysfunction via effective blockade of the inflammatory cascade” (Signal Transduction and Targeted Therapy, 2025)",
  "key": {"mouse C5": {"molecular_target": "T1, mouse C5 (Mus musculus, UniProt P06684)", "T1 construct": "purchased ACROBiosystems", "T1 sequence (P06684 19-1680)": "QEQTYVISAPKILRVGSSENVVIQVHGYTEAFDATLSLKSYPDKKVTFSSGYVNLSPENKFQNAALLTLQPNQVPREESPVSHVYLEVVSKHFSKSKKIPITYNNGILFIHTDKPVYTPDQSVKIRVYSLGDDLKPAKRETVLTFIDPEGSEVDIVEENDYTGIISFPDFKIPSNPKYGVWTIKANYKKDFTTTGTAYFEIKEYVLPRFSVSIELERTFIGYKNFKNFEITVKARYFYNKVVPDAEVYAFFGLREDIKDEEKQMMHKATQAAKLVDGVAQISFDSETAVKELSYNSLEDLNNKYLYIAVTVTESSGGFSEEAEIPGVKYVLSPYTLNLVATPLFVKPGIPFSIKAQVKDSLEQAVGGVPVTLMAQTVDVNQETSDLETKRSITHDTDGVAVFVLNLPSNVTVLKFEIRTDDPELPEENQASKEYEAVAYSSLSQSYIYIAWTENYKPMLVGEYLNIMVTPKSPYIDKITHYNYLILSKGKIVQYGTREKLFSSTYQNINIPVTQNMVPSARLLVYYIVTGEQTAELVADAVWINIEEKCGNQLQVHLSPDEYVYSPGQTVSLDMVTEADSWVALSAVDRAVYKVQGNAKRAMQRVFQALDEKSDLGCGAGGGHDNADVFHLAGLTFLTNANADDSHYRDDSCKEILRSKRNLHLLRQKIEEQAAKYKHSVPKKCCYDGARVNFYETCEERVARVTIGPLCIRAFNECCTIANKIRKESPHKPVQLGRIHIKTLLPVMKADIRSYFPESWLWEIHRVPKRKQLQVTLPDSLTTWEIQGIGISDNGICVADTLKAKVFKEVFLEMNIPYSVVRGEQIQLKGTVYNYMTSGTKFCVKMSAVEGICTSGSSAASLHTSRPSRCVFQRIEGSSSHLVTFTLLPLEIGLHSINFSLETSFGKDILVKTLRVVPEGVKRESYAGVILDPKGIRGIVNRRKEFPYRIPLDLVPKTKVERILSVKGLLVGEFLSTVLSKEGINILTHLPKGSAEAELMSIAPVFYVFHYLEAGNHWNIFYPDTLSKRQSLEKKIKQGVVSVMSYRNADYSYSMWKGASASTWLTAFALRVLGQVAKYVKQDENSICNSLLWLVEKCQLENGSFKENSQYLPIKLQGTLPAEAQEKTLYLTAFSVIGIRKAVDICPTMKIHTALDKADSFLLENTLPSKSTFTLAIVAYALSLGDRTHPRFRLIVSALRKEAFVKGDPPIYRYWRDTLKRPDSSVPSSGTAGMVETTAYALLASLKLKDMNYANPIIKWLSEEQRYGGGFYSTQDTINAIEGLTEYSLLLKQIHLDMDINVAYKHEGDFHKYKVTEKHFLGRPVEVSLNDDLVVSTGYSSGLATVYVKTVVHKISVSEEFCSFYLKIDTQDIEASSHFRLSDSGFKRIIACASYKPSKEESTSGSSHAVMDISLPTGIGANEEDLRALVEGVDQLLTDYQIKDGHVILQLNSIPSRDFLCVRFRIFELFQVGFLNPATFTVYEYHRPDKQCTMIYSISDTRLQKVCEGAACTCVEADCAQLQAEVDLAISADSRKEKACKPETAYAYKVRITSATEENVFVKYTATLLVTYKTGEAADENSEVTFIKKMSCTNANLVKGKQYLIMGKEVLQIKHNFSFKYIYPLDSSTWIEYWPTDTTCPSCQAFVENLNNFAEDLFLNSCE", "experiment": "SPR binding affinity assay, immobilized mouse C5", "experimental": "(§1) Surface plasmon resonance (SPR) analysis was conducted using Biacore 2000 system (GE Healthcare, Germany) at 37°C in running buffer (20 mM Tris-HCl, pH 7.4, 150 mM NaCl, 5 mM KCl, 1 mM MgCl₂, 1 mM CaCl₂). The CM5 sensor chips (GE Healthcare) were activated with NHS/EDC, followed by immobilization of mouse C5a (ACROBiosystems, Beijing, China), human C5a (ACROBiosystems, Beijing, China), mouse C5 (ACROBiosystems, Beijing, China) or mouse C5a-desArg (MCE, Shanghai, China). The peptide-protein interactions were characterized using a concentration-gradient approach (low to high) with a continuous flow rate of 30 μL/min (150 s injection duration). Between analyte concentrations, the sensor surface was regenerated with 10 mM glycine-HCl (pH 2.0; 5 min treatment). Binding and dissociation constants were obtained by globally fitting the data to a 1:1 Langmuir binding model using a Biacore Insight evaluation software (Cytiva, USA)."}, "normal mice": {"test_system": "normal mice", "experiment": "Systemic safety evaluation in normal mice", "type": "in vivo", "conditions": "100 μg/20 g i.v., 24 h", "experimental": "The cytotoxic potential of cyclic-peptides was evaluated in HUVECs and RAW 264.7 cells. Cells were incubated with serially diluted Cp1 (1 pg-100 μg/mL) for 24 hours at 37°C in a 5% CO₂ humidified atmosphere, followed by cell viability assessment using CCK-8 kit (Dojindo, Japan). For systemic safety evaluation, whole blood samples were collected for hematological analysis, biochemistry analysis and inflammatory profiling analysis. Following euthanasia, major organs were harvested, fixed and processed for H&E staining."}, "in vitro": {"experiment": "in vitro", "conditions": "C57BL/6, mouse, plasma", "from_the_text": "The peptides in the plasma were extracted with 15% TFA and quantified via reversed-phase high-performance liquid chromatography (HPLC) (Agilent 1260, USA)."}, "PMNs": {"test_system": "PMNs", "experiment": "C5a-triggered chemotaxis assay, PMNs (IncuCyte)", "type": "cell-based, human", "conditions": "10 ng to 1 μg per well, 24 h", "experimental": "The chemotaxis assay in this study was monitored and quantified by the IncuCyte ZOOM® Live-Cell Imaging System. The y-axis label “total area normalized to initial area in each group” in Fig. 3k, m represent the ratio of the total cell area at each time point to the initial area (0 h) within the same field of view. A higher ratio indicates […] cell migration activity.\nOne hundred nanograms of human C5a protein (ACROBiosystems, Beijing, China) was preincubated with linear or cyclic peptides at the indicated concentrations (10 ng, 100 ng, or 1 μg) in 1640 complete culture medium for 30 min. PMNs isolated by flow cytometric sorting for chemotaxis assays were purchased from Oribiotech Co., Ltd. (Shanghai, China). A total of 1 × 10^4 cells were added to the upper chamber of 96-well cell chemotaxis plates (Sartorius, Germany) and allowed to migrate at 37 °C for 24 h. The chemotactic response of neutrophils toward C5a with or without C5a-blocking peptides was quantified and analyzed via an IncuCyte ZOOM® Live-Cell Imaging System (Sartorius, Germany). The chemotactic response of mouse neutrophils was assessed following the established protocol for PMNs."}, "[1]": {"molecular_target": "T2, Cy5-labeled mouse C5a protein (Mus musculus, UniProt P06684)", "T2 construct": "10 ng of Cy5-labeled mouse C5a protein (MCE, Shanghai, China); purchased MCE; host or cells: mouse peripheral blood neutrophils (endogenous receptor)", "T2 sequence (P06684 679-755)": "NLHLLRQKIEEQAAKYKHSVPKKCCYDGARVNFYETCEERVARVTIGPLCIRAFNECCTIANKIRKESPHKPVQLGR", "experiment": "Competitive binding assay by FCM (Cy5-C5a on mouse neutrophils)", "type": "cell-based", "conditions": "high (1 μg/mL) or low (10 ng/mL) concentrations", "experimental": "For the validation of peptide affinity for C5a. Peripheral blood neutrophils from the mice were isolated via density gradient centrifugation (Solarbio P9201, Beijing, China). A total of 10 ng of Cy5-labeled mouse C5a protein (MCE, Shanghai, China) was preincubated with linear peptides or cyclic peptides (10 or 100 ng) at room temperature for 0.5 h. Subsequently, 2×10^5 mouse neutrophils were incubated with Cy5-labeled mouse C5a or Cy5-labeled mouse C5a/peptide complexes at 4 °C for 0.5 h in the dark, followed by centrifugation, washing with PBS and flow cytometric analysis (Sony ID7000™, Japan)."}, "CLP-treated mice": {"test_system": "CLP-treated mice", "experiment": "Response to secondary infection, short-term exposure: LPS stimulation of whole blood", "type": "in vivo, mouse", "conditions": "blood taken 24 h post-CLP surgery, 1 μg LPS", "experimental": "To evaluate the impact of short-term (24 h) drug exposure on the secondary infection response. Whole blood samples were collected from each group at 24 h post-CLP surgery and stimulated with 1 μg of LPS. The IL-6 levels at 0 h, 2 h, and 4 h poststimulation were quantified via an ELISA kit."}, "CLP-induced septic mice": {"test_system": "CLP-induced septic mice", "experiment": "Inflammatory factors and chemokines in plasma, Luminex, CLP mice", "type": "in vivo, mouse", "experimental": "Twenty-four hours later, whole blood and PLF were collected under anesthesia. The plasma and PLF supernatants were further isolated via centrifugation (3000 × g, 10 min, 4 °C) and subjected to inflammatory factor and chemokine profiling via the Luminex® multiplex […] Biotechnologies, Shanghai, China). The percent inhibition was calculated relative to that of the sham group (set as 0%)."}, "human C5a": {"molecular_target": "T3, human C5a (Homo sapiens, UniProt P01031)", "T3 construct": "human C5a (ACROBiosystems, Beijing, China); purchased ACROBiosystems", "T3 sequence (P01031 678-751 limits assumed)": "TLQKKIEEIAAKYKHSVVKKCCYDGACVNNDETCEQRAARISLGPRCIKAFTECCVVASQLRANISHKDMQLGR", "experiment": "SPR binding affinity assay, immobilized human C5a", "experimental": "as §1"}, "[2]": {"conditions": "100 μg/20 g, 24 h after CLP surgery"}},
  "note": "Where a SMILES comes first, the peptide text is derived from it.",
  "data": [
    {"smiles": "CSCC[C@@H]1NC(=O)[C@@H]2CCCN2C(=O)[C@H](CCSC)NC(=O)[C@H](CO)NC(=O)[C@H](Cc2c[nH]cn2)NC(=O)CNC(=O)[C@H](CO)NC(=O)[C@H](Cc2ccccc2)NC(=O)[C@H](CCCNC(=N)N)NC(=O)[C@H](CCC(=O)O)NC(=O)[C@H](Cc2ccccc2)NC(=O)[C@H](C(C)C)NC1=O", "note": "[Cp1] (cyclo(HSMPMVFERFSG))", "values": [
      {"measurement": "kon", "setting": "mouse C5; pH 7.4, read-out: Ka vs mC5 (SPR)", "result": 105000, "unit": "M⁻¹ s⁻¹"},
      {"measurement": "koff", "setting": "mouse C5; read-out: Kd (dissociation rate) vs mC5 (SPR)", "result": 0.0745, "unit": "s⁻¹"},
      {"measurement": "hepatorenal toxicity and tissue injury (blood biochemistry, histopathology)", "setting": "normal mice", "result": "no hepatorenal toxicity or tissue injury"},
      {"measurement": "remaining at 24 h", "setting": "in vitro", "result": "> 95", "unit": "%"},
      {"measurement": "suppression of C5a-driven recruitment of PMNs", "setting": "PMNs", "result": "dose-dependently suppressed"},
      {"measurement": "blockade of Cy5-C5a binding to mouse neutrophils", "setting": "[1]", "result": "validated the blocking efficacy"},
      {"measurement": "IL-6 level at 2 h post-LPS stimulation vs CLP control group", "setting": "CLP-treated mice", "result": "obviously increased IL-6 levels"},
      {"measurement": "decrease in plasma CCL2 level", "setting": "CLP-induced septic mice; [2]", "result": 21.7, "unit": "fold"},
      {"measurement": "decrease in plasma CCL3 level", "setting": "CLP-induced septic mice; [2]", "result": 81.9, "unit": "fold"},
      {"measurement": "decrease in plasma CCL4 level", "setting": "CLP-induced septic mice; [2]", "result": 24.8, "unit": "fold"},
      {"measurement": "decrease in plasma CCL5 level", "setting": "CLP-induced septic mice; [2]", "result": 18.6, "unit": "fold"},
      {"measurement": "decrease in plasma CCL7 level", "setting": "CLP-induced septic mice; [2]", "result": 102.3, "unit": "fold"},
      {"measurement": "decrease in plasma CXCL1 level", "setting": "CLP-induced septic mice; [2]", "result": 61.7, "unit": "fold"},
      {"measurement": "decrease in plasma CXCL5 level", "setting": "CLP-induced septic mice; [2]", "result": 4.3, "unit": "fold"},
      {"measurement": "decrease in plasma IL-1β level vs CLP group", "setting": "CLP-induced septic mice; [2]", "result": 94, "unit": "%"},
      {"measurement": "decrease in plasma IL-6 level vs CLP group", "setting": "CLP-induced septic mice; [2]", "result": 99, "unit": "%"},
      {"measurement": "decrease in plasma TNF-α level vs CLP group", "setting": "CLP-induced septic mice; [2]", "result": 86, "unit": "%"},
      {"measurement": "reduction in plasma IL-1β level", "setting": "CLP-induced septic mice; 100 μg/20 g, Luminex (Fig. 4a)", "result": 18.6, "unit": "fold"},
      {"measurement": "expression of inflammatory factors and chemokines in plasma, high dose", "setting": "CLP-induced septic mice; 300 μg of Cp1", "result": "effectively suppressed"},
      {"measurement": "plasma IL-17A, IFN-γ, GM-CSF, and CX3CL1 levels", "setting": "CLP-induced septic mice; 24 h after CLP surgery", "result": "significantly decreased"},
      {"measurement": "lowest effective dose with significant pharmacological activity", "setting": "CLP-induced septic mice; preliminary titrations", "result": 100, "unit": "μg"},
      {"measurement": "kon", "setting": "human C5a; pH 7.4, read-out: Ka vs hC5a (SPR)", "result": 53300, "unit": "M⁻¹ s⁻¹"},
      {"measurement": "koff", "setting": "human C5a; read-out: Kd (dissociation rate) vs hC5a (SPR)", "result": 0.395, "unit": "s⁻¹"}
    ]}
  ]
}
